# Experimental data from ChEMBL document CHEMBL3868628, “Dimeric sesquiterpene and thiophenes from the roots of Echinops latifolius” (Bioorg Med Chem Lett, 2016).
# System: not listed separately
# Assay: Antiinflammatory activity in mouse RAW264.7 cells assessed as reduction in LPS-induced NO production after 24 hrs in presence of LPS by colorimetric analysis
# Type: functional, cell-based
# Conditions: RAW264.7, 24 h
row,SMILES,IC50 [µM]
1,CC#Cc1ccc(-c2ccc(C(O)CO)s2)s1 (stereo not given),48.7
2,CC#Cc1ccc(-c2ccc(C(=O)OC)s2)s1,> 100
3,C/C=C/C#CC#Cc1ccc(C(O)CO)s1 (stereo not given),28.2
4,N=C(N)NN [PIMAGEDINE],24.2

# The next lines start with the values.
row,IC50 [µM],SMILES
1,12.8,C/C=C\C#CC#Cc1ccc(C(O)CO)s1 (stereo not given)
2,30.9,CC#Cc1ccc(-c2ccc(C(CO)OC)s2)s1 (stereo not given)
3,> 100,CC#Cc1ccc(-c2ccc(C=O)s2)s1
4,> 100,C=C1CCC[C@]2(C)C[C@]3(O)OC(=O)C(C)=C3C[C@@H]12 [ATRACTYLENOLIDE III]
5,13.2,COc1ccc2c(c1)c(CC(=O)O)c(C)n2C(=O)c1ccc(Cl)cc1 [INDOMETHACIN]

# Species on record: Mus musculus
# Assay: Cytotoxicity against mouse RAW264.7 cells assessed as reduction in cell viability at 1 to 10 uM after 24 hrs by cell counting based colorimetric analysis
# Type: toxicity
# Conditions: raw264.7, 24 h
row,SMILES,Activity
1,C=C(C)[C@@H]1CC[C@]2(C)C(=C(C)OC3=C2C[C@H]2C4C[C@H](C(C)C)CC[C@@]4(C)CC(=O)[C@@]2(O)O3)C1 (stereo not given in full),Toxic
